# Source: US6762202B2, “Infrared thermography and methods of use” (NitroMed, Inc., priority 2000, dated 2004)
# How the values were obtained:
# [1] = test system: labia and clitoris; assay: Infrared thermographic measurement of labial/clitoral temperature after topical administration; format: in vivo, Female white New Zealand rabbits; conditions: for temperature of the labia and clitoris following the application: 50 μL
# Experimental: Female white New Zealand rabbits were anaesthetized with pentobarbitol sodium and placed in a supine position on a warming pad. The warming pad was connected to a temperature control unit to maintain the core (rectal) temperature to 38° C. The labia and clitoris were exposed and kept in position by taping the surrounding skin to the nearby abdominal area. The infrared camera (THERMACAM® SC 1000, Inframetrics Inc., North Billerica, Mass.) was focused on the labia and clitoris and the animal was covered with a chamber to maintain the heat loss due to air movement.
# After a steady baseline temperature was maintained and recorded for at least 10 minutes the compound (50 μL) was applied to the surface of the labia and clitoris using a syringe and 27 G needle. The compound was formulated in a mixture of dimethyl sulfoxide (25%) and poly(ethylene glycols) (75%). The poly(ethylene glycols) was a mixture of poly(ethylene glycol) 1450 and poly(ethylene glycol) 400 in a ratio of 1:9 respectively.
# The images from the infrared camera were electronically transferred to a PC computer and analyzed using TherMonitor 95, version 1.61 (Thermoteknix System Ltd., Mount pleasant,Cambridge, U. K.). Various color scales in the visible wave length are used to depict the temperature change of the recorded images.
# [2] = test system: labial blood flow; assay: Laser doppler measurement of labial/clitoral blood flow after topical administration; format: in vivo, Female white New Zealand rabbits; conditions: 5% or 10%, 50 μL topical in MIGLYOL; laser doppler probe; FIG. 6
# Experimental: Female white New Zealand rabbits were anaesthetized with Ketamine/Xylazine mixture and placed in supine position. A laser doppler probe (LASERFLO, BPM 403, Vasamedics, Inc., Minn.) was placed at the labium surface, and after steady baseline blood flow was maintained and recorded for at least 10 minutes, Example 5 (5%, 50 μL), 10% of Example 7 (10%, 50 μL), or vehicle alone (50 μL, MIGLYOL®) was applied to the surface of the labia and clitoris. […] The time course for the increase in blood flow (FIG. 6) was very similar to the time course for the increase in labial clitoral temperature (FIG. 5).
smiles,measurement,setting,value
"CC(C)(CN1C(=O)C2C3C=CC(C3)C2C1=O)SN=O (centres unmarked) [Example 1, 4-Aza-4-(2-methyl-2-(nitrosothio)propyl)tricyclo(5.2.1.0<2,6>)dec-8-ene-3,5-dione]",temperature of the labia and clitoris following the application,"[1]; 5% topical, ~32° C. prior to application, FIG. 3, vehicle gave no increase",35 °C
"CC(C)(SN=O)C1COC(=O)N1 (centres unmarked) [Example 2, 4-(1-Methyl-1-(nitrosothio)ethyl)-1,3-oxazolidin-2-one]",melting point,,65 °C
same,temperature of the labia and clitoris following the application,"[1]; 10% topical, ~32° C. prior to application, FIG. 4",36 °C
"N[C@@H](CCC(=O)N[C@@H](CSN=O)C(=O)NCC(=O)O)C(=O)O [Example 7, N-(N-L-y-glutamyl-S-Nitroso-L-cysteinyl)glycine]",duration of sustained increase in labial blood flow,[2],> 60 min
same,increase in labial blood flow as compared to the baseline,[2],4 fold
same,change of labial clitoral temperature,"[1]; 2.5%, 50 μL topical in MIGLYOL, FIG. 5",slight and transient increase
same,increase of temperature of the labia and clitoris,"[1]; 5%, 50 μL topical in MIGLYOL, FIG. 5",3.5 °C
same,increase of temperature of the labia and clitoris,"[1]; 10%, 50 μL topical in MIGLYOL, FIG. 5",5.5 °C
"CC(C)CON=O [isobutyl nitrite, reference compound]",temperature of the labia and clitoris following the application,"[1]; 10% topical, ~30° C. prior to application, FIG. 1, vehicle gave no increase",32 °C
same,temperature of the labia and clitoris following the application,"[1]; 20% topical, ~31° C. prior to application, FIG. 2, vehicle gave no increase",34 °C
"CNC[C@H](O)c1cccc(O)c1 [phenylephrine, reference compound]",temperature after addition of the vasoconstrictor (decrease),"[1]; 10% applied 60 minutes after Example 2 (10%), monitored for 5 minutes, decrease from 36° C., FIG. 4",32 °C
